Results from US5393786A, “Method for treating inflammation, ischemia-induced cell damage and muscular dystrophy” (priority 1993, dated 1995).
Like-named read-outs stand apart in the source and are kept apart here.

Columns and labels:
[1] = test system: ischemia-induced cell damage caused by middle cerebral artery occlusion; test: Middle Cerebral Artery Occlusion Stroke Model; assay type: in vivo, male spontaneously hypertensive rats; conditions: for Infarct Volume: saline
From the text: Strokes were also produced in rats by occluding the middle cerebral artery according to the following procedure. Male spontaneously hypertensive rats were housed in groups of three to four per cage and allowed free access to food and water. The animals were anesthetized with a mixture of 2.5% halothane and air. The anesthetized rats then underwent the following surgical procedure.
A femoral artery of each rat was cannulated to monitor mean arterial pressure and a jugular cannula was inserted in order to provide a means for administering test compounds intravenously. […] The ventral neck area and the area behind each animal's right eye were shaved and washed with antiseptic solution. The right common carotid artery was dissected free of connective tissue through a midline cervical incision and the vessel permanently occluded with a silk ligature. Next, a 1 cm incision perpendicular to, and bisecting a line between the lateral canthus of the right eye and the external auditory canal, was made to expose the temporalis muscle which was retracted and partially excised. Using a dissecting microscope, the right middle cerebral artery was exposed through a 2 mm burr hole drilled 2-3 mm rostral to the fusion of the zygomatic arch with a squamosal bone. Drilling was done under a continuous drip of a 0.9% saline solution to prevent heat injury of the underlying cortex. The dura was cut and retracted to expose the middle cerebral artery.
This artery was occluded in two ways. The first method of occlusion involved permanent cauterization of the artery so that blood flow through the artery was completely eliminated. The second method of occulsion was only temporary (lasting two hours) and involved clamping the artery with microaneurism clips. Test compounds were administered at various times before, during and after occlusion. Each animal's body temperature was maintained at 37° C. during testing using a rectal thermometer connected to a heating pad.
Twenty-four hours after tandem middle cerbral carotid artery occlusion, the test animals were sacrificed and their brains removed and frozen over dry ice. Coronal sections 20 microns thick were cut at half millimeter intervals in a cryostat at -20° C. and dried on a hot plate at 60° C. The sections were then stained with cresyl violet. […] A total infarct volume was then calculated using a computer program that summed all sectional areas measured multiplied by the interval thickness. The lower the infarcted volume obtained, the lower the amount of cell damage caused by the stroke. The level of significance was obtained using Student's "t-test".

[2] = test system: adjuvant-induced arthritis (uninjected hind paw); test: Developing Adjuvant-Induced Arthritis Test in Rats; assay type: in vivo, male Lewis-Wistar rats; conditions: po, 720 h, AUC days 16-30
[3] = test system: striatal cell layer of the striatum; test: Stroke model in rats (four-vessel occlusion), striatal damage; assay type: in vivo, male Wistar rats
From the text: (§1) Strokes were produced in rats by occluding the four arteries that supply blood to the brain according to the following procedure. Male Wistar rats (250-280 g; Hilltop Laboratories, Scottsdale, Pa.) were anesthetized with metofane and placed into a stereotaxic instrument. A longitudinal incisio was made on the dorsal surface of the neck. The neck muscles were reflected to expose the dorsal surface of the spinal column. The two vertebral arteries were exposed where they pass through the first cervica vertebra. Both arteries were permanently occluded by the application of electrocautery. After coagulation of the vertebral arteries, the rat was removed from the stereotaxic instrument and the surgical wound was sutured. Two longitudinal incisions were then made on the ventral surface of the neck. The two common carotid arteries were exposed and dissected free from surrounding nerves and connective tissue. Reversible atraumatic clamps, fabricated mainly from silicon rubber tubing, were placed around each carotid artery in a manner such that the vessels were not traumatize or occluded. The clamps were externalized through the ventral neck incision. A suture was also placed through the neck dorsal to the carotids, esophagus and trachea, and tied loosely behind the neck. This suture is tied tightly at the time ischemia is induced in order to restrict collateral circulation reaching the brain through the dorsal muscles of the neck. The surgical wounds were then closed. After the surgery, the rats were allowed to recover for 24 hours (free access to water, but no food during this period).
(§2) On the day of testing, test compounds were administered at various times before stroke induction. Strokes (cerebral ischemia) were induced by tightening the clamps around the carotids, thereby stopping blood flow in the carotids. Rats in which strokes were successfully produced lost the righting reflex and became unresponsive to stimuli. Collateral circulatio through the dorsal neck muscles was then restricted by tightening the previously implanted suture. […] After 30 minutes of ischemia, the carotid clamps wer released, the neck suture was loosened, and blood flow to the brain was restored. Following the period of ischemia, the rats were allowed free access to food and water. Rats were again treated with test compounds at various times after the stroke. On the third day after the stroke the animals were sacrificed and their brains were removed, frozen and sectioned through the striatum and hippocampus. Sections were mounted on glass slides and stained with hematoxylin and eosin.
(§3) Two of the areas of the brain that are most susceptible to ischemia induce damage, both in rats and humans, are the CA1 pyramidal cell layer of the hippocampus and the striatal cell layer of the striatum. In animals that remain unresponsive for the 30 minute period of ischemia, the CA1 pyramidal cell layer and the striatal cell layer are completely destroyed. These layers of cells were examined microscopically in histological sections prepared from the hippocampus and striatum. Brain damage was rated according to the following scale:
(§4) 0=no damage, completely intact cell layer
(§5) 1=mild damage, onethird of cell layer dead
(§6) 2=moderate damage, twothirds of cell layer dead
(§7) 3=severe damage, complete destruction of cell layer
(§8) Damage in 10-12 sections from each brain was assessed in order to obtain a accurate estimate of damage. An average damage score was calculated for each treatment group. Scores from treated groups were compared statistically with scores from control groups which received only the vehicle used to suspend the compounds. The level of significance was determined using the Mann WhitneyU-test.

[4] = test system: hippocampal CA1 pyramidal cell layer; test: Stroke model in rats (four-vessel occlusion), hippocampal CA1 damage
From the text: as §1, §2, §3, §4, §5, §6, §7, §8

dystrophic mice (dy/dy) = test: Muscular Dystrophy Animal Model, life span of dystrophic mice; assay type: in vivo; conditions: 0.03 wgt % of compound in diet; control 73 days
Experimental: Dystrophic mice (dy/dy) were obtained from Jackson Laboratories after weaning (approximately 21 days) and treatment with the compound shown in Table IV was begun at the first sign of dystrophy. The compound was administered in the diet and lifespan was measured during the course of treatment. The food and water sources were located in different parts of the cage requiring the animals to walk from the food source to the water source to survive.

[5] = Chemical Abstracts, 74, 96312e (1971); cited from earlier work
[6] = Chemical Abstracts, 78, 132326f (1973); cited from earlier work
[7] = 50 mg/kg rat weight × 29, p.o. once daily, read-out: % Inhibition of Uninjected Paw Volume Inflammation, Days 16-30

CNCCc1cc(C(C)(C)C)c(O)c(C(C)(C)C)c1.Cl [4-[2-(methylamino)ethyl]-2,6-bis(1,1-dimethylethyl)phenol hydrochloride]
hypothermia (footnote +++) ([1]; dose of 50/10 i.v., permanent occlusion): severe hypothermia | Infarct Volume ([1]; permanent occlusion, 30/5 mg/kg i.v. (per hour), time c, control 129 ± 14): 130 ± 16 (mm)^3 | inhibition in vivo at 25 mg/kg ([2]; Rattus norvegicus, read-out: % Inhibition of Uninjected Paw Volume Inflammation, Days 16-30, 25 mg/kg rat weight × 29, p.o. once daily): 72.2%

CN(C)Cc1cc(C(C)(C)C)c(O)c(C(C)(C)C)c1.Cl [4-[(dimethylamino)methyl]-2,6-bis(1,1-dimethylethyl)phenol hydrochloride]
Damage Score, Striatum ([3]; scale 0 (no damage)-3 (severe), mean ± SE, 50 mg/kg orally, 2% acacia, time a (15 min pre, 4 h and 24 h postischemia), control 2.6 ± 0.2): 1.1 ± 0.2 | Damage Score, Hippocampus ([4]; scale 0 (no damage)-3 (severe), mean ± SE, 50 mg/kg orally, 2% acacia, time a (15 min pre, 4 h and 24 h postischemia), control 2.7 ± 0.2): 1.7 ± 0.3 | Infarct Volume ([1]; permanent occlusion, 50/10 mg/kg i.v. (per hour), time c (15 min before occlusion, then 24 h), control 136 ± 7): 91 ± 12 (mm)^3 | Infarct Volume ([1]; temporary occlusion, 50/50/10 mg/kg i.p./i.p./i.v. (per hour), time a (15 min before clamping, 15 min before clamp removal, then 24 h), control 114.4 ± 14.1): 47.9 ± 3.4 (mm)^3 | Infarct Volume ([1]; temporary occlusion, 50/50/10 mg/kg i.p./i.p./i.v. (per hour), time b (15 min after clamping, 15 min before clamp removal, then 24 h), control 101.7 ± 9.1): 35.5 ± 5.3 (mm)^3 | Infarct Volume ([1]; temporary occlusion, 50/50/10 mg/kg i.p./i.p./i.v. (per hour), time b, rats fasted overnight, control 61.9 ± 7.9): 23.1 ± 4.9 (mm)^3 | inhibition in vivo at 50 mg/kg ([2]; Rattus norvegicus, read-out: % Inhibition of Uninjected Paw Volume Inflammation, Days 16-30, 50 mg/kg rat weight × 29, p.o. once daily): 94.8%

CN(C)Cc1cc(C(C)(C)C)c(O)c(C(C)(C)C)c1 [4-[(dimethylamino)methyl]-2,6-bis(1,1-dimethylethyl)phenol]
Damage Score, Striatum ([3]; scale 0-3, mean ± SE, 100 mg/kg orally, 2% acacia, time b (2 h pre, 24 h postischemia), control 2.5 ± 0.5): 0.8 ± 0.3 | Damage Score, Hippocampus ([4]; scale 0-3, mean ± SE, 100 mg/kg orally, 2% acacia, time b (2 h pre, 24 h postischemia), control 2.8 ± 0.2): 0.8 ± 0.4 | Average Life Span (dystrophic mice (dy/dy)): 120 days | inhibition in vivo at 50 mg/kg [2, 7]: 59.7%

CCCN(CCC)Cc1cc(C(C)(C)C)c(O)c(C(C)(C)C)c1.Cl [4-[(dipropylamino)methyl]-2,6-bis(1,1-dimethylethyl)phenol hydrochloride]
Damage Score, Striatum ([3]; scale 0-3, mean ± SE, 100 mg/kg orally, 2% acacia, time c (30 min pre, 4 h and 24 h postischemia), control 1.4 ± 0.3): 1.2 ± 0.4 | Damage Score, Hippocampus ([4]; scale 0-3, mean ± SE, 100 mg/kg orally, 2% acacia, time c (30 min pre, 4 h and 24 h postischemia), control 2.5 ± 0.3): 1.0 ± 0.4 | Infarct Volume ([1]; temporary occlusion, 20/5 mg/kg i.v. (per hour), time d, control 123 ± 14): 143 ± 12 (mm)^3 | inhibition in vivo at 50 mg/kg [2, 7]: 64.4%

CCNCc1cc(C(C)(C)C)c(O)c(C(C)(C)C)c1.Cl [4-[(ethylamino)methyl]-2,6-bis(1,1-dimethylethyl)phenol hydrochloride]
Damage Score, Striatum ([3]; scale 0-3, mean ± SE, 20 mg/kg / 5 mg/kg per hour i.v., 10% DMSO/TWEEN 80/NaCl, time d (immediately after ischemia, then continuous 24 h), control 2.37 ± 0.28): 1.20 ± 0.42 | Damage Score, Hippocampus ([4]; scale 0-3, mean ± SE, 20 mg/kg / 5 mg/kg per hour i.v., 10% DMSO/TWEEN 80/NaCl, time d (immediately after ischemia, then continuous 24 h), control 2.83 ± 0.12): 1.23 ± 0.47 | Infarct Volume ([1]; permanent occlusion, 20/5 mg/kg i.v. (per hour), time c, control 172 ± 19): 122 ± 12 (mm)^3 | Infarct Volume ([1]; temporary occlusion, 10/5 mg/kg i.v., time f (one hour after clamping, then upon clamp removal for 24 h), control 128 ± 17): 74 ± 8 (mm)^3 | inhibition in vivo at 5 mg/kg ([2]; 5 mg/kg rat weight × 29, p.o. once daily, read-out: % Inhibition of Uninjected Paw Volume Inflammation, Days 16-30): 27.9% | inhibition in vivo at 10 mg/kg ([2]; 10 mg/kg rat weight × 29, p.o. once daily, read-out: % Inhibition of Uninjected Paw Volume Inflammation, Days 16-30): 19.6% | inhibition in vivo at 20 mg/kg ([2]; 20 mg/kg rat weight × 29, p.o. once daily, read-out: % Inhibition of Uninjected Paw Volume Inflammation, Days 16-30): 50.8% | inhibition in vivo at 25 mg/kg ([2]; 25 mg/kg rat weight × 29, p.o. once daily, read-out: % Inhibition of Uninjected Paw Volume Inflammation, Days 16-30): 96.5%

CNCc1cc(C(C)(C)C)c(O)c(C(C)(C)C)c1.Cl [4-[(methylamino)methyl]-2,6-bis(1,1-dimethylethyl)phenol hydrochloride]
Damage Score, Striatum ([3]; scale 0-3, mean ± SE, 10 mg/kg / 10 mg/kg per hour i.v., saline, time d (immediately after ischemia, then continuous 24 h), control 2.6 ± 0.3): 1.97 ± 0.4 | Damage Score, Striatum ([3]; scale 0-3, mean ± SE, 50 mg/kg / 10 mg/kg per hour i.v., saline, time d (immediately after ischemia, then continuous 24 h), control 2.3 ± 0.4): 1.13 ± 0.4 | antioxidative activity of liver lipids [5]: increases the antioxidative activity of liver lipids | liver tissue regeneration following a partial hepatectomy [5]: increasing liver tissue regeneration following a partial hepatectomy | Damage Score, Hippocampus ([4]; scale 0-3, mean ± SE, 10 mg/kg / 10 mg/kg per hour i.v., saline, time d (immediately after ischemia, then continuous 24 h), control 2.4 ± 0.3): 0.75 ± 0.3 | Damage Score, Hippocampus ([4]; scale 0-3, mean ± SE, 50 mg/kg / 10 mg/kg per hour i.v., saline, time d (immediately after ischemia, then continuous 24 h), control 2.6 ± 0.3): 0.66 ± 0.3 | Infarct Volume ([1]; permanent occlusion, 50 mg/kg i.v. single dose, time e (10 min before occlusion), control 140 ± 23): 123 ± 18 (mm)^3 | Infarct Volume ([1]; permanent occlusion, 10/10 mg/kg i.v. (per hour), time c, control 145 ± 12): 128 ± 11 (mm)^3 | Infarct Volume ([1]; permanent occlusion, 20/5 mg/kg i.v. (per hour), time c, control 133 ± 16): 112 ± 7 (mm)^3 | Infarct Volume ([1]; permanent occlusion, 20/10 mg/kg i.v. (per hour), time c, control 148 ± 9): 90 ± 18 (mm)^3 | Infarct Volume ([1]; permanent occlusion, 50/10 mg/kg i.v. (per hour), time c, control 142 ± 7): 76 ± 12 (mm)^3 | inhibition in vivo at 50 mg/kg [2, 7]: 119%

CNCc1cc(C(C)(C)C)c(O)c(C(C)(C)C)c1 [N-methyl-3,5-di-t-butyl-4-hydroxybenzylamine]
rate of blood deoxygenation [6]: increase the rate of blood deoxygenation
